Experimental data reported in US20240150377A1, “MODULATORS OF CYSTIC FIBROSIS TRANSMEMBRANE CONDUCTANCE REGULATOR” (VERTEX PHARMACEUTICALS INCORPORATED, priority 2020, published 2024).
Where two headings read alike, the source gives them in different places.

Experiments:
Format in all cases: cell-based
CFTR [1] = target: CFTR (Homo sapiens, UniProt P13569); assay: Membrane potential dye, Enteroid Assay A; conditions: for Ent. A Max Activity: chloride transport as % of triple combination control (Enteroid Assay A); for EC50: human enteroid cells, 18-24 hours, acute 10 μM forskolin and 300 nM ivacaftor, read-out: Ent. A EC50
CFTR (Homo sapiens, UniProt P13569), sequence (P13569 with tags, fused parts or gaps DEL508-508): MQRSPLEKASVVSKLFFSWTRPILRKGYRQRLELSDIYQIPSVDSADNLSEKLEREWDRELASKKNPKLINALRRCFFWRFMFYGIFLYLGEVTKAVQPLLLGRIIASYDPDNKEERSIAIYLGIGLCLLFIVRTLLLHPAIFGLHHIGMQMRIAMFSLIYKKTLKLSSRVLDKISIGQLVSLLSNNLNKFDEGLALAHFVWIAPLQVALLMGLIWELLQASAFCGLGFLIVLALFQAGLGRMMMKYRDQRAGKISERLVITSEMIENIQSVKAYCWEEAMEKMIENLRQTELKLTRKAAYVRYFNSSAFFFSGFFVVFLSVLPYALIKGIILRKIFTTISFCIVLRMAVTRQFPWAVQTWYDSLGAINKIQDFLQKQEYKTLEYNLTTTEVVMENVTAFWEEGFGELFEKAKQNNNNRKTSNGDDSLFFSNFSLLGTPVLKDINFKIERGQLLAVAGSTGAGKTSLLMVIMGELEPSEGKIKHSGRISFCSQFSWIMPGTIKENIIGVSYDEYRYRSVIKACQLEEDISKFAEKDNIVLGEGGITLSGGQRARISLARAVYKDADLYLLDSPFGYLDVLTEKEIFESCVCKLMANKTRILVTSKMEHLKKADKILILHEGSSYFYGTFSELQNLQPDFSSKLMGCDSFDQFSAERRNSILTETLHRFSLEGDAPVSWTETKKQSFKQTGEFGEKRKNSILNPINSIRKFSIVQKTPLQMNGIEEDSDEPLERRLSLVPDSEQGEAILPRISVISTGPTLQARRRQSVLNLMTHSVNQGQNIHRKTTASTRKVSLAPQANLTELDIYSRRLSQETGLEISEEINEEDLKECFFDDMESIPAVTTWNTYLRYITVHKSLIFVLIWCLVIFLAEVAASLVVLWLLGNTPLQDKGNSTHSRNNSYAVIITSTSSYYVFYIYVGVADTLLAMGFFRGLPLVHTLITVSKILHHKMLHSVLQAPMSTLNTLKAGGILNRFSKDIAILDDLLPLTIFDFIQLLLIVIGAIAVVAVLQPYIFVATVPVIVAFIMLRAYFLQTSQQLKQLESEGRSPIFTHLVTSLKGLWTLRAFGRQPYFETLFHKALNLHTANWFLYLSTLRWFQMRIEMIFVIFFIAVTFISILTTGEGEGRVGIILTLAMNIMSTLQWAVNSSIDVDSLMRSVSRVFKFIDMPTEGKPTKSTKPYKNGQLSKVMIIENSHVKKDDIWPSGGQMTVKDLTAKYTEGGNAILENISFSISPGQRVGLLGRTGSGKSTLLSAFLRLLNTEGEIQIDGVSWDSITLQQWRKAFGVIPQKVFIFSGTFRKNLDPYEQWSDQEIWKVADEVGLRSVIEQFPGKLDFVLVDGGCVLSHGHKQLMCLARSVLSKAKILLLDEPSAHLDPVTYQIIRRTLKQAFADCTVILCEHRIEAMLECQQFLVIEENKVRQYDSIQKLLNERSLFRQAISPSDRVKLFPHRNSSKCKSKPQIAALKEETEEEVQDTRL
Experimental: Base medium (ADF+++) consisted of Advanced DMEM/Ham's F12, 2 mM Glutamax, 10 mM HEPES, […] penicillin/streptomycin.
Intestinal enteroid maintenance medium (IEMM) consisted of ADF+++, 1× B27 supplement, 1× N2 supplement, 1.25 mM N-acetyl cysteine, 10 mM Nicotinamide, 50 ng/mL hEGF, 10 nM Gastrin, 1 μg/mL hR-spondin-1, 100 ng/mL hNoggin, TGF-b type 1 inhibitor A-83-01, 100 μg/mL Primocin, 10 μM P38 MAPK inhibitor SB202190.
Bath 1 Buffer consisted of 1 mM MgCl2, 160 mM NaCl, 4.5 mM KCl, 10 mM HEPES, 10 mM Glucose, 2 mM CaCl2).
Chloride Free Buffer consisted of 1 mM Magnesium Gluconate, 2 mM Calcium Gluconate, 4.5 mM Potassium Gluconate, 160 mM Sodium Gluconate, 10 mM HEPES, 10 mM Glucose.
BathI Dye Solution consisted of Bath 1 Buffer, 0.04% Pluronic F127, 20 μM Methyl Oxonol, 30 μM CaCCinh-A01, 30 μM Chicago Sky Blue.
Chloride Free Dye Solution consisted of Chloride Free Buffer, 0.04% Pluronic F127, 20 μM Methyl Oxonol, 30 μM CaCCinh-A01, 30 μM Chicago Sky Blue.
Chloride Free Dye Stimulation Solution consisted of Chloride Free Dye Solution, 10 μM forskolin, 100 μM IBMX, and 300 nM Compound III.
Human intestinal epithelial enteroid cells were obtained from the Hubrecht Institute for Developmental Biology and Stem Cell Research, Utrecht, The Netherlands and expanded in T-Flasks as previously described (Dekkers J F, Wiegerinck C L, de Jonge H R, Bronsveld I, Janssens H M, de Winter-de Groot K M, Brandsma A M, de Jong N W M, Bijvelds M J C, Scholte B J, Nieuwenhuis E E S, van den Brink S, Clevers H, van der Ent C K, Middendorp S and M Beekman J M. A functional CFTR assay using primary cystic fibrosis intestinal organoids. Nat Med. 2013 July;19(7):939-45.).
3. Enteroid Cell Harvesting and Seeding
Cells were recovered in cell recovery solution, collected by centrifugation at 650 rpm for 5 min at 4° C., resuspended in TrypLE and incubated for 5 min at 37° C. Cells were then collected by centrifugation at 650 rpm for 5 min at 4° C. and resuspended in IEMM containing 10 μM ROCK inhibitor (RI). The cell suspension was passed through a 40 μm cell strainer and resuspended at 1×10^6 cells/mL in IEMM containing 10 μM RI. Cells were seeded at 5000 cells/well into multi-well plates and incubated for overnight at 37° C., 95% humidity and 5% CO2 prior to assay.
4. Membrane Potential Dye, Enteroid Assay A
Enteroid cells were incubated with test compound in IEMM for 18-24 hours at 37° C., 95% humidity and 5% CO2. […] Briefly, cells were washed 5 times in Bath 1 Buffer. Bath 1 Dye Solution was added, and the cells were incubated for 25 min at room temperature. Following dye incubation, cells were washed 3 times in Chloride Free Dye Solution. Chloride transport was initiated by addition of Chloride Free Dye Stimulation Solution and the fluorescence signal was read for 15 min. […] Chloride transport was then expressed as a percentage of the chloride transport following treatment with 3 μM N-[(6-amino-2-pyridyl)sulfonyl]-6-(3-fluoro-5-isobutoxy-phenyl)-2-[(4S)-2,2,4-trimethylpyrrolidin-1-yl]pyridine-3-carboxamide, 3 μM (R)-1-(2,2-difluorobenzo[d][1,3]dioxol-5-yl)-N-(1-(2,3-dihydroxypropyl)-6-fluoro-2-(1-hydroxy-2-methylpropan-2-yl)-1H-indol-5-yl)cyclopropanecarboxamide and 300 nM acute N-[2,4-bis(1,1-dimethylethyl)-5-hydroxyphenyl]-1,4-dihydro-4-oxoquinoline-3-carboxamide triple combination control (% Activity).

CFTR [2] = target: T1, CFTR (Homo sapiens, UniProt P13569, DEL508-508); assay: HBE assay: Ussing chamber assay of CFTR-mediated short-circuit currents; conditions: read-out: HBE Activity at 10 μM (%)
T1 construct: endogenous in cells; host or cells: primary human bronchial epithelial cells from CF subjects (F508del/MF-HBE), differentiated at air-liquid interface
T1 sequence (P13569 with tags, fused parts or gaps DEL508-508): as above
In short: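 CFTR-mediated Isc (μA/cm²) equals the peak response to apical 20 μM forskolin minus the residual after a 20 μM each BPO/GlyH-101/CFTR inhibitor 172 cocktail, recorded in Ussing chambers at Vhold 0 mV, 37 °C, pH 7.4, with 30 μM apical amiloride. Cells were F508del/MF HBE cultures preincubated 18-24 h with corrector (concentration range or 10 μM) plus 1 μM ivacaftor in 20% human serum.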

CFTR [3] = target: T1, CFTR; assay: HBE2 assay: Ussing chamber assay of CFTR-mediated short-circuit currents; conditions: F508del/MF-HBE cells, with 44 nM potentiator, 18-24 hours, 20% human serum
In short: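 F508del/MF-HBE cultured >14 days at air-liquid interface, mounted in Ussing chambers; transepithelial short-circuit current recorded under voltage clamp (Vhold=0 mV) at 37 °C. CFTR-mediated ISC (μA/cm^2) taken as peak forskolin response relative to steady-state current after inhibition; corrector activity assessed this way.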

Row | Structure (SMILES) | Ent. A Max Activity (CFTR [1]; Table 6) | EC50 (CFTR [1]; Table 6) | further results
1 | COc1cccc(CN2C(=O)c3cccc(c3)S(=O)(=O)Nc3nc(cc(-c4c(C)cccc4C)n3)OC[C@H]2CC(C)C)c1 [Compound 348] | +++ (+++ is >60%) | < 1 µM | –
2 | Cc1cccc(C)c1-c1cc2nc(n1)NS(=O)(=O)c1cccc(c1)C(=O)N(CCc1ccccc1)[C@H](CC(C)C)CO2 [Compound 355] | +++ (+++ is >60%) | < 1 µM | –
3 | Cc1cccc(C)c1-c1cc2nc(n1)NS(=O)(=O)c1cccc(c1)C(=O)N(CCC1CCOCC1)[C@H](CC(F)(F)F)CO2 [Compound 983] | – | – | Ent. A Max Activity (CFTR [1]; Table 7): ++ (++ is 30-60%); EC50 (CFTR [1]; Table 7): < 1 µM
4 | COc1ccnc(CN2C(=O)c3cccc(c3)S(=O)(=O)Nc3nc(cc(-c4c(C)cccc4C)n3)OC[C@H]2CC(C)C)c1 [Compound 82, (11R)-6-(2,6-Dimethylphenyl)-11-isobutyl-12-[(4-methoxy-2-pyridyl)methyl]-2,2-dioxo-9-oxa-2λ^6-thia-3,5,12,19-tetrazatricyclo[12.3.1.14,8]nonadeca-1(18),4(19),5,7,14,16-hexaen-13-one] | +++ (+++ is >60%) | < 1 µM | –
5 | Cc1cccc(C)c1-c1cc2nc(n1)NS(=O)(=O)c1cccc(c1)C(=O)N(CC1CCN(C)CC1)[C@H](CC(C)(C)C)CO2 [Compound 426] | +++ (+++ is >60%) | 1 to 3 µM | –
6 | CC[C@H](O)CNc1ccc(CN2C(=O)c3cccc(c3)S(=O)(=O)Nc3nc(cc(-c4c(C)cccc4C)n3)OC[C@H]2CC(C)C)cn1 [Compound 948] | – | – | Ent. A Max Activity (CFTR [1]; Table 7): +++ (+++ is >60%); EC50 (CFTR [1]; Table 7): 1 to 3 µM
7 | Cc1cccc(C)c1-c1cc2nc(n1)NS(=O)(=O)c1cccc(c1)C(=O)N(Cc1ccc(N3CC[C@@H](O)C3)nc1)[C@H](CC(C)C)CO2 [Compound 955] | – | – | Ent. A Max Activity (CFTR [1]; Table 7): +++ (+++ is >60%); EC50 (CFTR [1]; Table 7): < 1 µM
8 | Cc1cccc(C)c1-c1cc2nc(n1)NS(=O)(=O)c1cccc(c1)C(=O)N(C)CC(c1ccc(C(N)=O)cc1)O2 (stereo not drawn) [Compound 666] | + (+ is <30%) | – | –
9 | CC[C@H](C)Oc1cnc(CN2C(=O)c3cccc(c3)S(=O)(=O)Nc3nc(cc(-c4c(C)cccc4C)n3)OC[C@H]2CC2(C)CC2)nc1 [Compound 1546] | – | – | activation at 10 µM (CFTR [2]; HBE assay, 10 μM): > 60%; HBE2 Activity at 3 μM (%) (CFTR [3]; 3 μM): +++ (+++ is >60+)
10 | Cc1cccc(C)c1-c1cc2nc(n1)NS(=O)(=O)c1cccc(c1)C(=O)N(Cc1cncc(N3CCCC[C@H]3C)n1)[C@H](CC(C)(C)C)CO2 [Compound 1506] | – | – | activation at 10 µM (CFTR [2]): > 60%; EC50 (CFTR [3]): < 1 µM; Emax (CFTR [3]; read-out: HBE2 Max activity (%)): > 60%

Continued, in another order:

Row | Ent. A Max Activity (CFTR [1]; Table 6) | EC50 (CFTR [1]; Table 6) | Structure (SMILES) | further results
11 | +++ (+++ is >60%) | < 1 µM | Cc1cccc(C)c1-c1cc2nc(n1)NS(=O)(=O)c1cccc(c1)C(=O)N(Cc1cccc(C#N)c1)[C@H](CC(C)C)CO2 [Compound 859] | –
12 | +++ (+++ is >60%) | < 1 µM | Cc1cccc(C)c1-c1cc2nc(n1)NS(=O)(=O)c1cccc(c1)C(=O)N(CCC(C)C)C(CCC1(C(F)(F)F)CC1)CO2 (stereo not drawn) [Compound 688] | –
